{
  "source": "patent US5250673A",
  "about": "“2'-deoxy-5-substituted uridine derivatives” (priority 1983, dated 1993)",
  "type_in_all_cases": "in vivo, mouse",
  "key": {"[1]": {"experiment": "toxicity value: 50% inhibition of weight increase of test animal (Sarcoma 180 tumor-transplanted mice)", "details": "mouse, sarcoma 180 bearing mice, oral, once a day, 7 days, male ICR/JCL mice, read-out: Toxicity value (B) Administration amount of test compound at which weight increase of test animal is inhibited by 50% compared with that of control group", "experimental": "(b) Method for determining toxicity value\nHitherto, toxicity values of anti-malignant tumor agents have been calculated on the bases of LD50 of test animals, in most cases. […] Therefore, in the present test, accumulated toxicity, which well represents the toxicity of anti-malignant tumor agents, was focused on and, as an indication for sensitive detection of the accumulated toxicity, inhibition of weight increase of test animal was measured. That is, when antitumor activity value was determined in the above item (a), the weight of each mouse of each test groups for each test compounds was measured daily from the day of tumor transplanting, immediately before administration.\nOn the day of tumor weight measurement, the average net weight increase of each mouse of each test groups for each test compounds from the day of tumor transplanting was measured. These increases were compared with the average net weight increase of control group and the ratio of net weight increase of each test groups of each test compounds to that of control group was calculated. From these calculations, there was obtained an addition amount of each test compound at which weight increase is inhibited by 50% compared with that of control group, and that amount was taken as a toxicity value of each compound."}, "Sarcoma 180 [2]": {"system": "Sarcoma 180", "experiment": "calculation of therapeutic index (B)/(A), Sarcoma 180 mice", "design": "key: C = toxicity value (B) / antitumor activity value (A)", "details": "oral, once a day, 7 days", "experimental": "(c) Calculation of therapeutic index\nBy the use of the antitumor activity value (hereinafter referred to as A) and the toxicity value (hereinafter referred to as B) of each compound, which were obtained in the above items (a) and (b), respectively, therapeutic index (hereinafter referred to as C) was calculated in accordance with the following equation.\nTherapeutic index (C)=^(B)(A)"}, "Sarcoma 180 [3]": {"system": "Sarcoma 180", "experiment": "antitumor activity: 50% inhibition of tumor enhancement, Sarcoma 180 transplanted in mice", "details": "oral, once a day, 7 days, male ICR/JCL mice, tumor weight day 10", "experimental": "(a) Method for determining of antitumor activity value\n5×10^6 Cells of mouse-transplantable tumor Sarcoma 180 were transplanted to each male ICR/JCL-strain mouse (having a weight of 27 to 30 g) subcutaneously at the back. Each test compound dissolved or suspended in 0.1% Tween 80^(*) - 0.5% CMC solution was orally administered to various test groups each consisting of 7 mice once a day for 7 consecutive days from the next day of tumor transplanting, in an amount of 1.0 ml of solution or suspension per 100 g weight per day. As to a control group, the same Tween 80-CMC solution containing no test compound was orally administered once a day for 7 consecutive days in an amount of 1.0 ml per 100 g weight per day. (*) (A trademark for a series of surface which is a polyoxyethylene derivative of fatty acid partial ester of sorbitol anhydride, manufactured by I.C.I. U.S., Inc.)\nOn the tenth day from the tumor transplanting, an average tumor weight for each administration level of each test compound was determined. This weight was compared with an average tumor weight in control group, and the ratio of tumor enhancement inhibition at each administration level of each test compound compared with control group was calculated. From these calculations, the administration level of each test compound at which the ratio of tumor enhancement inhibition become 50% was obtained and the level (amount) was taken as the antitumor activity value of each compound."}},
  "note": "Read-outs that look alike come from different tables or passages of the source.",
  "data": [
    {"smiles": "CCCCOC[C@H]1O[C@@H](n2cc(C(F)(F)F)c(=O)n(C(=O)c3ccccc3)c2=O)C[C@@H]1O", "note": "[Compound 26]", "values": [
      {"measurement": "TD50 at 240 h", "setting": "[1]; Table 1-b", "value": 74, "unit": "mg/kg"},
      {"measurement": "Therapeutic index (C) = (B)/(A)", "setting": "Sarcoma 180 [2]; Table 1-b", "value": 1.48},
      {"measurement": "Antitumor activity value (A) Administration amount of test compound at which tumor enhancement is inhibited by 50% compared with that of control group", "setting": "Sarcoma 180 [3]; Table 1-b", "value": 50, "unit": "mg/kg/day"}
    ]},
    {"smiles": "Cc1cccc(CO[C@H]2C[C@H](n3cc(C(F)(F)F)c(=O)[nH]c3=O)O[C@@H]2CO)c1", "note": "[Compound 16, 2'-deoxy-3'-O-(3-methylbenzyl)-5trifluoromethyluridine]", "values": [
      {"measurement": "TD50 at 240 h", "setting": "[1]; Table 1-a", "value": 45, "unit": "mg/kg"},
      {"measurement": "Therapeutic index (C) = (B)/(A)", "setting": "Sarcoma 180 [2]; Table 1-a", "value": 1.45},
      {"measurement": "Antitumor activity value (A) Administration amount of test compound at which tumor enhancement is inhibited by 50% compared with that of control group", "setting": "Sarcoma 180 [3]; Table 1-a", "value": 31, "unit": "mg/kg/day"}
    ]},
    {"smiles": "CCO[C@H]1C[C@H](n2cc(C(F)(F)F)c(=O)n(C(=O)c3ccccc3)c2=O)O[C@@H]1CO", "note": "[Compound 25, 3-benzoyl-2'-deoxy-3'-O-ethyl-5-trifluoromethyluridine]", "values": [
      {"measurement": "TD50 at 240 h", "setting": "[1]; Table 1-b", "value": 31, "unit": "mg/kg"},
      {"measurement": "Therapeutic index (C) = (B)/(A)", "setting": "Sarcoma 180 [2]; Table 1-b", "value": 0.82},
      {"measurement": "Antitumor activity value (A) Administration amount of test compound at which tumor enhancement is inhibited by 50% compared with that of control group", "setting": "Sarcoma 180 [3]; Table 1-b", "value": 38, "unit": "mg/kg/day"}
    ]},
    {"smiles": "O=C(c1ccccc1)n1c(=O)c(C(F)(F)F)cn([C@H]2C[C@H](O)[C@@H](COCc3ccccc3)O2)c1=O", "note": "[Compound 27, 3-benzoyl-5'-O-benzyl-2'-deoxy-5-trifluoromethyluridine]", "values": [
      {"measurement": "TD50 at 240 h", "setting": "[1]; Table 1-b", "value": 35, "unit": "mg/kg"},
      {"measurement": "Therapeutic index (C) = (B)/(A)", "setting": "Sarcoma 180 [2]; Table 1-b", "value": 1.40},
      {"measurement": "Antitumor activity value (A) Administration amount of test compound at which tumor enhancement is inhibited by 50% compared with that of control group", "setting": "Sarcoma 180 [3]; Table 1-b", "value": 25, "unit": "mg/kg/day"}
    ]},
    {"smiles": "COC[C@H]1O[C@@H](n2cc(C(F)(F)F)c(=O)[nH]c2=O)C[C@@H]1O", "note": "[Compound 29]", "values": [
      {"measurement": "TD50 at 240 h", "setting": "[1]; Table 1-b", "value": 72, "unit": "mg/kg"},
      {"measurement": "Therapeutic index (C) = (B)/(A)", "setting": "Sarcoma 180 [2]; Table 1-b", "value": 1.50},
      {"measurement": "Antitumor activity value (A) Administration amount of test compound at which tumor enhancement is inhibited by 50% compared with that of control group", "setting": "Sarcoma 180 [3]; Table 1-b", "value": 48, "unit": "mg/kg/day"}
    ]},
    {"smiles": "COc1ccc(COC[C@H]2O[C@@H](n3cc(C(F)(F)F)c(=O)[nH]c3=O)C[C@@H]2O)cc1", "note": "[Compound 17]", "values": [
      {"measurement": "TD50 at 240 h", "setting": "[1]; Table 1-a", "value": 51, "unit": "mg/kg"},
      {"measurement": "Therapeutic index (C) = (B)/(A)", "setting": "Sarcoma 180 [2]; Table 1-a", "value": 1.13},
      {"measurement": "Antitumor activity value (A) Administration amount of test compound at which tumor enhancement is inhibited by 50% compared with that of control group", "setting": "Sarcoma 180 [3]; Table 1-a", "value": 45, "unit": "mg/kg/day"}
    ]},
    {"smiles": "Cc1ccccc1CO[C@H]1C[C@H](n2cc(C(F)(F)F)c(=O)[nH]c2=O)O[C@@H]1CO", "note": "[Compound 14]", "values": [
      {"measurement": "TD50 at 240 h", "setting": "[1]; Table 1-a", "value": 57, "unit": "mg/kg"},
      {"measurement": "Therapeutic index (C) = (B)/(A)", "setting": "Sarcoma 180 [2]; Table 1-a", "value": 1.43},
      {"measurement": "Antitumor activity value (A) Administration amount of test compound at which tumor enhancement is inhibited by 50% compared with that of control group", "setting": "Sarcoma 180 [3]; Table 1-a", "value": 40, "unit": "mg/kg/day"}
    ]},
    {"smiles": "O=c1[nH]c(=O)n([C@H]2C[C@H](OCc3ccccc3)[C@@H](CO)O2)cc1C(F)(F)F", "note": "[Compound 33, 3'-O-benzyl-2'-deoxy-5-trifluoromethyluridine]", "values": [
      {"measurement": "TD50 at 240 h", "setting": "[1]; Table 1-b", "value": 32, "unit": "mg/kg"},
      {"measurement": "Antitumor activity value (A) Administration amount of test compound at which tumor enhancement is inhibited by 50% compared with that of control group", "setting": "Sarcoma 180 [3]; Table 1-b", "value": 17, "unit": "mg/kg/day"}
    ]},
    {"smiles": "O=c1[nH]c(=O)n([C@H]2C[C@H](OCc3ccccc3)[C@@H](CO)O2)cc1F", "note": "[Compound 40, 2'-deoxy-3'-O-benzyl-5-fluorouridine]", "values": [
      {"measurement": "TD50 at 240 h", "setting": "[1]; Table 1-c", "value": 35, "unit": "mg/kg"},
      {"measurement": "Antitumor activity value (A) Administration amount of test compound at which tumor enhancement is inhibited by 50% compared with that of control group", "setting": "Sarcoma 180 [3]; Table 1-c", "value": 17, "unit": "mg/kg/day"}
    ]},
    {"smiles": "CCOC[C@H]1O[C@@H](n2cc(F)c(=O)n(C(=O)c3ccccc3)c2=O)C[C@@H]1O", "note": "[Compound 35, 3-benzoyl-2'-deoxy-5'-O-ethyl-5-fluorouridine]", "values": [
      {"measurement": "TD50 at 240 h", "setting": "[1]; Table 1-c", "value": 70, "unit": "mg/kg"},
      {"measurement": "Therapeutic index (C) = (B)/(A)", "setting": "Sarcoma 180 [2]; Table 1-c", "value": 1.37},
      {"measurement": "Antitumor activity value (A) Administration amount of test compound at which tumor enhancement is inhibited by 50% compared with that of control group", "setting": "Sarcoma 180 [3]; Table 1-c", "value": 51, "unit": "mg/kg/day"}
    ]},
    {"smiles": "CCO[C@H]1C[C@H](n2cc(C(F)(F)F)c(=O)[nH]c2=O)O[C@@H]1CO", "note": "[Compound 31, 2'-deoxy-3'-O-ethyl-5-trifluoromethyluridine]", "values": [
      {"measurement": "TD50 at 240 h", "setting": "[1]; Table 1-b", "value": 30, "unit": "mg/kg"},
      {"measurement": "Therapeutic index (C) = (B)/(A)", "setting": "Sarcoma 180 [2]; Table 1-b", "value": 1.50},
      {"measurement": "Antitumor activity value (A) Administration amount of test compound at which tumor enhancement is inhibited by 50% compared with that of control group", "setting": "Sarcoma 180 [3]; Table 1-b", "value": 20, "unit": "mg/kg/day"}
    ]},
    {"smiles": "CCOC[C@H]1O[C@@H](n2cc(C(F)(F)F)c(=O)[nH]c2=O)C[C@@H]1O", "note": "[Compound 30, 2'-deoxy-5'-O-ethyl-5-trifluoromethyluridine]", "values": [
      {"measurement": "TD50 at 240 h", "setting": "[1]; Table 1-b", "value": 32, "unit": "mg/kg"},
      {"measurement": "Therapeutic index (C) = (B)/(A)", "setting": "Sarcoma 180 [2]; Table 1-b", "value": 1.68},
      {"measurement": "Antitumor activity value (A) Administration amount of test compound at which tumor enhancement is inhibited by 50% compared with that of control group", "setting": "Sarcoma 180 [3]; Table 1-b", "value": 19, "unit": "mg/kg/day"}
    ]}
  ]
}
